# In patent publication US8435970B2 (priority 2006, dated 2013):
# Counter-ions that a name gives are not always drawn.
# What was measured:
# [1] = tested on: Aurora (Histone H3 phosphorylation); assay: Western blotting assay of downstream substrate phosphorylation; format: cell-based; conditions: western blot; concentration of inhibition
# [2] = Gravimetric vapour sorption (GVS); format: physicochemical; conditions: for hygroscopic behaviour (GVS isotherm): 0 to 95% RH, 25° C.
# Protocol: E. Gravimetric Vapour Sorption (GVS):
# The sample size was ca. 10-25 mg. […] The sample was loaded and unloaded at room humidity and temperature (ca. 40% RH, 25° C.) and analysed afterwards by XRPD (using a Bruker AXS C2 GADDS system).
# [3] = citrate buffer, pH 4.5, aqueous buffer
# [4] = tested on: human tumour derived cell lines engrafted sub-cutaneously; conditions: nude mice, sub-cutaneous human tumour xenografts
# [5] = tested on: primary human mammary epithelial cells; assay: In vitro studies with normal cells; conditions: 24 h compound treatment, cf. tumor cells
# [6] = tested on: OVCAR-3 tumour cells; conditions: concentrations of 50 and 100 microM; PKB amplified; cited from earlier work
smiles,measurement,setting,value
O=C(Nc1c[nH]nc1-c1nc2cc(CN3CCOCC3)ccc2[nH]1)NC1CC1,Inhibition of Histone H3 phosphorylation (Aurora),[1],10 to 30 nM
O=C(Nc1c[nH]nc1-c1nc2cc(CN3CCOCC3)ccc2[nH]1)NC1CC1 [L-lactate salt],hygroscopic behaviour (GVS isotherm),[2],does not display hygroscopic behaviour
O=C(Nc1c[nH]nc1-c1nc2cc(CN3CCOCC3)ccc2[nH]1)NC1CC1 [free base],solubility,[3],~80 mg/mL
same,hygroscopic behaviour (GVS isotherm),[2]; listed as Free Base,hygroscopic
same,sample weight difference between 0% R.H and 95% R.H.,[2]; GVS,approximately 9%
O=C(Nc1c[nH]nc1-c1nc2cc(CN3CCOCC3)ccc2[nH]1)NC1CC1 [compound of formula (I)],anti-tumour action as a single agent,[4],anti-tumour action
same,effect on normal checkpoint competent cells,[5],reversible G2/M arrest
O=S(=O)(NCCNCC=C(c1ccccc1)c1ccccc1)c1cccc2cnccc12 [NL-71-101],apoptosis induction,[6],induced apoptosis
